ChEMBL document CHEMBL1156687, “Design and microwave-assisted synthesis of 5-trifluoromethyl-4,5-dihydro-1H-pyrazoles: novel agents with analgesic and anti-inflammatory properties” (Eur J Med Chem, 2008)
Calls of active or inactive are those of the source. The rule behind the calls is not given here.

Legend:
[1] = system: Mus musculus; assay: Analgesic activity in albino mouse assessed as response latency at 1000 ug/ml, sc after 30 mins by hot plate method; assay type: functional, organism-based
[2] = system: Mus musculus; assay: Analgesic activity against formalin-induced neurogenic pain in albino mouse assessed as time spent on paw licking at 1500 umol/kg, sc administered 20 mins before formalin challenge assessed for 30 mins at 5 mins intervals; assay type: functional, organism-based
[3] = system: Mus musculus; assay: Analgesic activity in albino mouse assessed as falling latency at 1000 ug/ml, sc after 30 mins by rotarod test; assay type: functional
[4] = system: Mus musculus; assay: Analgesic activity in albino mouse assessed as inhibition of carrageenan-induced paw edema at 1000 ug/ml; assay type: functional; set-up: scale not given: the % may be the effect or the level left
[5] = system: Mus musculus; assay: Analgesic activity against formalin-induced inflammatory pain in albino mouse assessed as time spent on paw licking at 1500 umol/kg, sc administered 20 mins before formalin challenge assessed for 30 mins at 5 mins intervals; assay type: functional, organism-based
[6] = system: Mus musculus; assay: Analgesic activity against formalin-induced neurogenic pain in albino mouse assessed as time spent on paw licking at 1000 umol/kg, sc administered 20 mins before formalin challenge assessed for 30 mins at 5 mins intervals; assay type: functional
[7] = system: Mus musculus; assay: Increase in locomotor activity in albino mouse assessed as number of crossing at 1000 umol/kg; assay type: functional
[8] = organism: Mus musculus; assay: Toxicity against in albino mouse after 72 hrs; assay type: organism-based; conditions: in vivo
[9] = system: Mus musculus; assay: Analgesic activity in albino mouse assessed as number of falls from the rod at 1000 ug/ml, sc after 4 mins by rotarod test; assay type: functional
[10] = system: Mus musculus; assay: Analgesic activity against formalin-induced inflammatory pain in albino mouse assessed as time spent on paw licking at 1000 umol/kg, sc administered 20 mins before formalin challenge assessed for 30 mins at 5 mins intervals; assay type: functional
[11] = system: Mus musculus; assay: Analgesic activity against formalin-induced inflammatory pain in albino mouse assessed as time spent on paw licking at 750 umol/kg, sc administered 20 mins before formalin challenge assessed for 30 mins at 5 mins intervals; assay type: functional
[12] = system: Mus musculus; assay: Analgesic activity against formalin-induced neurogenic pain in albino mouse assessed as time spent on paw licking at 750 umol/kg, sc administered 20 mins before formalin challenge assessed for 30 mins at 5 mins intervals; assay type: functional
[13] = system: Mus musculus; assay: Analgesic activity in albino mouse assessed as response latency at 1500 ug/ml, sc after 30 mins by hot plate method; assay type: functional, organism-based
[14] = system: Mus musculus; assay: Analgesic activity against formalin-induced inflammatory pain in albino mouse assessed as time spent on paw licking at 25 umol/kg, sc administered 20 mins before formalin challenge assessed for 30 mins at 5 mins intervals; assay type: functional, organism-based
[15] = system: Mus musculus; assay: Increase in locomotor activity in albino mouse assessed as number of crossing at 1500 umol/kg; assay type: functional
[16] = system: Mus musculus; assay: Analgesic activity against formalin-induced inflammatory pain in albino mouse assessed as time spent on paw licking at 75 umol/kg, sc administered 20 mins before formalin challenge assessed for 30 mins at 5 mins intervals; assay type: functional, organism-based
[17] = system: Mus musculus; assay: Analgesic activity against formalin-induced inflammatory pain in albino mouse assessed as time spent on paw licking at 250 umol/kg, sc administered 20 mins before formalin challenge assessed for 30 mins at 5 mins intervals; assay type: functional, organism-based

CC1C=NN(C(N)=O)C1(O)C(F)(F)F (centres undefined)
Activity [1]: inactive | Activity [2]: Active | Activity [3]: 62.6 s | Activity [4]: 34.6% | Activity [5]: Active | Activity [6]: 74.6% | Activity [7]: 167.3 | Activity [8]: Non-toxic | Activity [9]: 5.1 | Activity [10]: 97.2%

CC(C)(C)C1=NN(C(N)=O)C(O)(C(F)(F)F)C1 (centres undefined)
Activity [6]: 59.1% | Activity [10]: 72.9%

CCCCC1=NN(C(N)=O)C(O)(C(F)(F)F)C1 (centres undefined)
Activity [11]: -22.3% | Activity [12]: 46%

CC1=NN(C(N)=O)C(O)(C(F)(F)F)C1 (centres undefined)
Activity [6]: 23.3% | Activity [10]: 55.5%

Cc1c(N(C)CS(=O)(=O)[O-])c(=O)n(-c2ccccc2)n1C.[Na+] [DIPYRONE SODIUM]
Activity [2]: Active | Activity [13]: Active | Activity [7]: 87.7

CC(C)C1=NN(C(N)=O)C(O)(C(F)(F)F)C1 (centres undefined)
Activity [14]: Active | Activity [8]: Non-toxic | Activity [11]: 67% | Activity [12]: 51.9%

CCC1=NN(C(N)=O)C(O)(C(F)(F)F)C1 (centres undefined)
Activity [1]: inactive | Activity [2]: Active | Activity [3]: 112.5 s | Activity [4]: 43.7% | Activity [5]: Active | Activity [6]: 87.9% | Activity [7]: 165.6 | Activity [9]: 3.7 | Activity [10]: 98.2%

NC(=O)N1N=CCC1(O)C(F)(F)F (centres undefined)
Activity [6]: 32.8% | Activity [10]: 70.8%

NC(=O)c1ccccc1O [SALICYLAMIDE]
Activity [15]: 102.1 | Activity [2]: inactive

NC(=O)N1N=C(c2ccc(Br)cc2)CC1(O)C(F)(F)F (centres undefined)
Activity [6]: 33.3% | Activity [10]: 47.3%

CCCC1=NN(C(N)=O)C(O)(C(F)(F)F)C1 (centres undefined)
Activity [16]: Active | Activity [17]: inactive | Activity [11]: 70.1% | Activity [12]: 48.2%

NC(=O)N1N=C(c2ccccc2)CC1(O)C(F)(F)F (centres undefined)
Activity [6]: 10% | Activity [10]: 8.2%
